Measured values from article PMC8537445, “D-Peptide-Based Probe for CXCR4-Targeted Molecular Imaging and Radionuclide Therapy” (Pharmaceutics, 2021).
Where two headings read alike, the source gives them in different places. Positions of bridges follow the written chain, without caps; N, C: chain ends. Non-standard residues stand in square brackets, D forms with d. Residues, ends and D or L forms follow the SMILES beside them. Chains are numbered I, II in the order given. *: point of attachment. NOTA = O=C(O)CN1CCN(CC(=O)O)CCN(CC(=O)*)CC1

Legend:
[1] = Ex vivo biodistribution in U87.hCXCR4 tumor-bearing mice; set-up: species or system mouse; details: female, SCID (CB17.Cg-Prkdc<scid>Lyst<bg-J>/Crl), mouse, iv, total radioactivity, 75 min p.i., mean ± SD; for tissue to tissue ratio at 1.25 h: SUV ratio
[2] = system: U87.hCXCR4 tumor-bearing mice; assay: as above; set-up: species or system mouse; details: 75 min p.i., mean ± SD
[3] = co-injected AMD3100 5 mg/kg (157 nmol), n = 4
[4] = co-injected DV1-k-(DV3) 7 nmol, n = 3
[5] = co-injected DV1-k-(DV3) 14 nmol, n = 4
[6] = co-injected DV1-k-(DV3) 24 nmol, n = 4
[7] = SUV ratio, co-injected AMD3100 5 mg/kg (157 nmol), n = 4
[8] = SUV ratio, co-injected DV1-k-(DV3) 7 nmol, n = 3
[9] = SUV ratio, co-injected DV1-k-(DV3) 24 nmol, n = 4

SMILES: CC(C)C[C@@H](N)C(=O)NCC(=O)N[C@H](C)C(=O)N[C@H](CO)C(=O)N[C@H](Cc1c[nH]c2ccccc12)C(=O)N[C@H](Cc1c[nH]cn1)C(=O)N[C@H](CCCNC(=N)N)C(=O)N1CCC[C@@H]1C(=O)N[C@H](CC(=O)O)C(=O)N[C@H](CCCCNC(=O)CN1CCN(CC(=O)O)CCN(CC(=O)O)CC1)C(=O)NCCCC[C@@H](NC(=O)[C@H]1CCCN1C(=O)[C@@H](CC(C)C)NC(=O)[C@H]1CCCN1C(=O)[C@@H](CCCNC(=N)N)NC(=O)[C@@H](CCCCN)NC(=O)[C@@H](CCC(N)=O)NC(=O)[C@@H](Cc1ccc(O)cc1)NC(=O)CNC(=O)[C@@H](CC(C)C)NC(=O)[C@@H](CS)NC(=O)[C@@H](CS)NC(=O)[C@@H](CCCCN)NC(=O)[C@@H](CC(=O)O)NC(=O)[C@H]1CCCN1C(=O)[C@@H](CCCNC(=N)N)NC(=O)[C@@H](Cc1c[nH]cn1)NC(=O)[C@@H](Cc1c[nH]c2ccccc12)NC(=O)[C@@H](CO)NC(=O)[C@@H](C)NC(=O)CNC(=O)[C@H](N)CC(C)C)C(=O)O [[^18F]AlF-NOTA-DV1-k-(DV3)] (I: H-[dL]G[dA][dS][dW][dH][dR][dP][dD][dK][dC][dC][dL]G[dY][dQ][dK][dR][dP][dL][dP][dK]-OH / II: H-[dL]G[dA][dS][dW][dH][dR][dP][dD][dK](NOTA); amide I:22-II:C)
- SUV at 1.25 h ([1]; muscle, co-injected DV1-k-(DV3) 14 nmol, n = 4, read-out: muscle uptake): 0.2 ± 0.1 SUV
- SUV at 1.25 h ([1]; muscle, co-injected DV1-k-(DV3) 24 nmol, n = 4, read-out: muscle uptake): 0.2 ± 0.1 SUV
- SUV at 1.25 h ([1]; muscle, tracer alone (0 nmol), n = 4, read-out: muscle uptake): 0.05 ± 0.02 SUV
- SUV at 1.25 h ([1]; muscle, with AMD3100 5 mg/kg (157 nmol), co-injected, co-injected AMD3100 5 mg/kg (157 nmol), n = 4, read-out: muscle uptake): 0.1 ± 0.1 SUV
- SUV at 1.25 h ([1]; pancreas, co-injected AMD3100 5 mg/kg (157 nmol), n = 4, read-out: pancreas uptake): 0.1 ± 0.1 SUV
- SUV at 1.25 h ([1]; pancreas, co-injected DV1-k-(DV3) 7 nmol, n = 3, read-out: pancreas uptake): 0.1 ± 0.04 SUV
- SUV at 1.25 h ([1]; pancreas, co-injected DV1-k-(DV3) 14 nmol, n = 4, read-out: pancreas uptake): 0.2 ± 0.1 SUV
- SUV at 1.25 h ([1]; pancreas, co-injected DV1-k-(DV3) 24 nmol, n = 4, read-out: pancreas uptake): 0.1 ± 0.03 SUV
- SUV at 1.25 h ([1]; pancreas, tracer alone (0 nmol), n = 4, read-out: pancreas uptake): 0.06 ± 0.02 SUV
- SUV at 1.25 h ([1]; spleen, co-injected AMD3100 5 mg/kg (157 nmol), n = 4, read-out: spleen uptake): 0.5 ± 0.1 SUV
- SUV at 1.25 h ([1]; spleen, co-injected DV1-k-(DV3) 7 nmol, n = 3, read-out: spleen uptake): 0.5 ± 0.1 SUV
- SUV at 1.25 h ([1]; spleen, co-injected DV1-k-(DV3) 14 nmol, n = 4, read-out: spleen uptake): 0.6 ± 0.2 SUV
- SUV at 1.25 h ([1]; spleen, co-injected DV1-k-(DV3) 24 nmol, n = 4, read-out: spleen uptake): 0.4 ± 0.1 SUV
- SUV at 1.25 h ([1]; spleen, tracer alone (0 nmol), n = 4, read-out: spleen uptake): 2.5 ± 1 SUV
- tissue to tissue ratio at 1.25 h ([1]; tumor / blood, tracer alone (0 nmol), n = 4, read-out: tumor-to-blood ratio (t/blood)): 4.6 ± 0.9
- tissue to tissue ratio at 1.25 h ([1]; tumor / liver, tracer alone (0 nmol), n = 4, read-out: tumor-to-liver ratio (t/liver)): 0.1 ± 0.02
- tissue to tissue ratio at 1.25 h ([1]; tumor / liver, with unlabelled DV1-k-(DV3) 24 nmol, co-injected, co-injected DV1-k-(DV3) 24 nmol, n = 4, read-out: tumor-to-liver ratio (t/liver)): 0.9 ± 0.2
- tissue to tissue ratio at 1.25 h ([1]; tumor / muscle, tracer alone (0 nmol), n = 4, read-out: tumor-to-muscle ratio (t/muscle)): 12.4 ± 2.9
- tissue to tissue ratio at 1.25 h ([1]; tumor / muscle, with AMD3100 5 mg/kg (157 nmol), co-injected, co-injected AMD3100 5 mg/kg (157 nmol), n = 4, read-out: tumor-to-muscle ratio (t/muscle)): 4.2 ± 1.1
- tissue to tissue ratio at 1.25 h ([1]; tumor / muscle, with unlabelled DV1-k-(DV3) 7 nmol, co-injected, co-injected DV1-k-(DV3) 7 nmol, n = 3, read-out: tumor-to-muscle ratio (t/muscle)): 5.4 ± 2.2
- tissue to tissue ratio at 1.25 h ([1]; tumor / muscle, with unlabelled DV1-k-(DV3) 14 nmol, co-injected, co-injected DV1-k-(DV3) 14 nmol, n = 4, read-out: tumor-to-muscle ratio (t/muscle)): 4.8 ± 2.1
- tissue to tissue ratio at 1.25 h ([1]; tumor / muscle, with unlabelled DV1-k-(DV3) 24 nmol, co-injected, co-injected DV1-k-(DV3) 24 nmol, n = 4, read-out: tumor-to-muscle ratio (t/muscle)): 3 ± 0.4
- SUV at 1.25 h ([1]; tumor, tracer alone (0 nmol), n = 4, read-out: tumor uptake): 0.6 ± 0.2 SUV
- SUV at 1.25 h ([1]; tumor, with AMD3100 5 mg/kg (157 nmol), co-injected, co-injected AMD3100 5 mg/kg (157 nmol), n = 4, read-out: tumor uptake): 0.4 ± 0.2 SUV
- SUV at 1.25 h ([1]; tumor, with unlabelled DV1-k-(DV3) 7 nmol, co-injected, co-injected DV1-k-(DV3) 7 nmol, n = 3, read-out: tumor uptake): 0.7 ± 0.1 SUV
- SUV at 1.25 h ([1]; tumor, with unlabelled DV1-k-(DV3) 14 nmol, co-injected, co-injected DV1-k-(DV3) 14 nmol, n = 4, read-out: tumor uptake): 0.9 ± 0.3 SUV
- SUV at 1.25 h ([1]; tumor, with unlabelled DV1-k-(DV3) 24 nmol, co-injected, co-injected DV1-k-(DV3) 24 nmol, n = 4, read-out: tumor uptake): 0.6 ± 0.2 SUV
- tissue to tissue ratio at 1.25 h ([1]; tumor/blood, co-injected DV1-k-(DV3) 7 nmol, n = 3, read-out: tumor-to-blood ratio (t/blood)): 2.2 ± 0.9
- tissue to tissue ratio at 1.25 h ([1]; tumor/blood, co-injected DV1-k-(DV3) 14 nmol, n = 4, read-out: tumor-to-blood ratio (t/blood)): 2 ± 0.9
- tissue to tissue ratio at 1.25 h ([1]; tumor/blood, co-injected DV1-k-(DV3) 24 nmol, n = 4, read-out: tumor-to-blood ratio (t/blood)): 1.8 ± 0.3
- tissue to tissue ratio at 1.25 h ([1]; tumor/bone, co-injected AMD3100 5 mg/kg (157 nmol), n = 4, read-out: tumor-to-bone ratio (t/bone)): 2.6 ± 0.7
- tissue to tissue ratio at 1.25 h ([1]; tumor/bone, co-injected DV1-k-(DV3) 7 nmol, n = 3, read-out: tumor-to-bone ratio (t/bone)): 2.9 ± 0.3
- tissue to tissue ratio at 1.25 h ([1]; tumor/bone, co-injected DV1-k-(DV3) 14 nmol, n = 4, read-out: tumor-to-bone ratio (t/bone)): 3.2 ± 0.4
- tissue to tissue ratio at 1.25 h ([1]; tumor/bone, co-injected DV1-k-(DV3) 24 nmol, n = 4, read-out: tumor-to-bone ratio (t/bone)): 3.3 ± 0.5
- tissue to tissue ratio at 1.25 h ([1]; tumor/bone, tracer alone (0 nmol), n = 4, read-out: tumor-to-bone ratio (t/bone)): 1.4 ± 0.5
- tissue to tissue ratio at 1.25 h ([1]; tumor/liver, co-injected AMD3100 5 mg/kg (157 nmol), n = 4, read-out: tumor-to-liver ratio (t/liver)): 0.5 ± 0.2
- tissue to tissue ratio at 1.25 h ([1]; tumor/liver, co-injected DV1-k-(DV3) 7 nmol, n = 3, read-out: tumor-to-liver ratio (t/liver)): 0.6 ± 0.1
- tissue to tissue ratio at 1.25 h ([1]; tumor/liver, co-injected DV1-k-(DV3) 14 nmol, n = 4, read-out: tumor-to-liver ratio (t/liver)): 0.8 ± 0.2
- tissue to tissue ratio at 1.25 h ([1]; tumor/spleen, co-injected AMD3100 5 mg/kg (157 nmol), n = 4, read-out: tumor-to-spleen ratio (t/spleen)): 0.7 ± 0.2
- tissue to tissue ratio at 1.25 h ([1]; tumor/spleen, co-injected DV1-k-(DV3) 7 nmol, n = 3, read-out: tumor-to-spleen ratio (t/spleen)): 1.4 ± 0.1
- tissue to tissue ratio at 1.25 h ([1]; tumor/spleen, co-injected DV1-k-(DV3) 14 nmol, n = 4, read-out: tumor-to-spleen ratio (t/spleen)): 1.4 ± 0.1
- tissue to tissue ratio at 1.25 h ([1]; tumor/spleen, co-injected DV1-k-(DV3) 24 nmol, n = 4, read-out: tumor-to-spleen ratio (t/spleen)): 1.6 ± 0.3
- tissue to tissue ratio at 1.25 h ([1]; tumor/spleen, tracer alone (0 nmol), n = 4, read-out: tumor-to-spleen ratio (t/spleen)): 0.3 ± 0.1
- bone uptake [2, 3]: 0.1 ± 0.04 SUV
- spleen uptake [2, 3]: 0.5 ± 0.1 SUV
- bone uptake ([2]; co-injected AMD3100 5 mg/kg (157 nmol), n = 4, listed as [18F]AlF-NOTA-DV1-k-(DV3)): 0.1 ± 0.04 SUV
- bone uptake [2, 4]: 0.2 ± 0.04 SUV
- liver uptake [2, 4]: 1.2 ± 0.1 SUV
- bone uptake [2, 5]: 0.3 ± 0.1 SUV
- liver uptake [2, 5]: 1.2 ± 0.4 SUV
- bone uptake [2, 6]: 0.2 ± 0.04 SUV
- liver uptake [2, 6]: 0.7 ± 0.1 SUV
- tumor-to-blood ratio (t/blood) [2, 7]: 1.7 ± 0.5
- tumor-to-liver ratio (t/liver) [2, 7]: 0.5 ± 0.2
- tumor-to-liver ratio (t/liver) [2, 8]: 0.6 ± 0.1
- tumor-to-muscle ratio (t/muscle) [2, 8]: 5.4 ± 2.2
- tumor-to-muscle ratio (t/muscle) ([2]; SUV ratio, co-injected DV1-k-(DV3) 14 nmol, n = 4): 4.8 ± 2.1
- tumor-to-liver ratio (t/liver) [2, 9]: 0.9 ± 0.2
- tumor-to-muscle ratio (t/muscle) [2, 9]: 3.0 ± 0.4
